Data published in US20230414607A1, “METHODS OF TREATMENT” (BOW RIVER LLC, priority 2017, published 2023).
Read-outs that look alike come from different tables or passages of the source.

Columns and labels:
CYP3A4 = CYP3A4 (Homo sapiens, UniProt P08684); conditions: cited from earlier work
[1] = AUC and Cmax target safe levels of CYP3A4 substrate drugs (Table 1); conditions: human
Description: In various embodiments, the “Target safe levels” are non-limiting examples of the upper limit of fold change or percent of baseline where in some embodiments the benefits of treating the patient for the condition or disease for which the CYP3A4 substrate drug is indicated outweigh the risks associated with the effects of a drug-drug interaction. […] For purposes of the present methods, the blood plasma levels measured during co-administration of the CYP3A4 substrate drug with […] may be used to estimate the posaconazole DDI decay curve, e.g., using equation 1.

[2] = cited from earlier work
[3] = co-administered with a strong CYP3A4 inhibitor (posaconazole, itraconazole, ritonavir, or ketoconazole)

CYP3A4, sequence (P08684 whole entry): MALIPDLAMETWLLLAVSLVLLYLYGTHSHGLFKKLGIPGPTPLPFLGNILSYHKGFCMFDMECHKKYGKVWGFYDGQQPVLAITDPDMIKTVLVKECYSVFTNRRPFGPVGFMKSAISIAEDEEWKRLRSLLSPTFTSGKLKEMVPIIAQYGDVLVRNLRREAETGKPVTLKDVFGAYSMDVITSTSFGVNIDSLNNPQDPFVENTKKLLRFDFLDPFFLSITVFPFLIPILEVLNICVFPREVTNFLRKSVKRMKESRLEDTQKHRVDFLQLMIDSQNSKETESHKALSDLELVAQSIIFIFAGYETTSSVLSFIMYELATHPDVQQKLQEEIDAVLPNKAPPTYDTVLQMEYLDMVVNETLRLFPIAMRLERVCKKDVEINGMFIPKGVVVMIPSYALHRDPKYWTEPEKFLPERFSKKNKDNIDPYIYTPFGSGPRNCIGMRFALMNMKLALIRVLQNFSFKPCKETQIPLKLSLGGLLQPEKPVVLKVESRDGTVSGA

| SMILES | AUC co-administration levels, Fold change (CYP3A4; in vivo) | AUC co-administration levels, Percent of baseline (CYP3A4; in vivo) | Cmax co-administration levels, Fold change (CYP3A4; in vivo) | Cmax co-administration levels, Percent of baseline (CYP3A4; in vivo) | other results |
| --- | --- | --- | --- | --- | --- |
| COc1cc(Nc2c(C#N)cnc3cc(OCCCN4CCN(C)CC4)c(OC)cc23)c(Cl)cc1Cl [bosutinib] | 2 fold | 200% | 1.5 fold | 150% |  |
| COc1cc(N2CCC(N3CCN(C)CC3)CC2)ccc1Nc1ncc(Cl)c(Nc2ccccc2P(C)(C)=O)n1 [brigatinib] | 2.01 fold | 201% | 1.21 fold | 121% |  |
| CNC(=O)c1cc(Oc2ccc(NC(=O)Nc3ccc(Cl)c(C(F)(F)F)c3)c(F)c2)ccn1 [regorafenib] | 1.33 fold | 133% |  |  |  |
| CCN1CCN(Cc2ccc(Nc3ncc(F)c(-c4cc(F)c5nc(C)n(C(C)C)c5c4)n3)nc2)CC1 [abemaciclib] | 16 fold | 1600% |  |  | AUC target safe level, Fold change [1]: 1.3 fold; AUC target safe level, Percent of baseline [1]: 130% |
| CCc1c2c(nc3ccc(O)cc13)-c1cc3c(c(=O)n1C2)COC(=O)[C@]3(O)CC [SN-38] |  |  |  |  | Baseline AUC (% CV) ([2]; single 90 min infusion of irinotecan 125 mg/m^2, AUC0-24): 229 ± 108 ng·h/mL; Baseline Cmax (% CV) ([2]; single 90 min infusion of irinotecan 125 mg/m^2): 26.3 ± 11.9 ng/mL; Baseline AUC (% CV) ([2]; single 90 min infusion of irinotecan 340 mg/m^2, AUC0-24): 474 ± 245 ng·h/mL; Baseline Cmax (% CV) ([2]; single 90 min infusion of irinotecan 340 mg/m^2): 56.0 ± 28.2 ng/mL |
| O=C(c1cc(Cc2n[nH]c(=O)c3ccccc23)ccc1F)N1CCN(C(=O)C2CC2)CC1 [olaparib] | 2.2 fold | 220% | 1.1 fold | 110% |  |
| COc1cc(Nc2ncc(F)c(Nc3ccc4c(n3)NC(=O)C(C)(C)O4)n2)cc(OC)c1OC [R406] |  |  |  |  | Baseline AUC (% CV) ([2]; in vivo): 7080 (±2670) ng*h/mL; Baseline Cmax (% CV) ([2]; in vivo): 550 (±270) ng/ml |
| O=c1[nH]c2ccccc2n1CCN1CCN(c2cccc(C(F)(F)F)c2)CC1 [flibanserin] | 1.4 fold | 140% | 1.1 fold | 110% |  |
| CCC(=O)O[C@]1(C(=O)SCF)[C@H](C)C[C@H]2[C@@H]3C[C@H](F)C4=CC(=O)C=C[C@]4(C)[C@@]3(F)[C@@H](O)C[C@@]21C [fluticasone propionate] |  |  |  |  | AUC co-administration levels, Fold change (CYP3A4; [3]): 1.9; fold; AUC co-administration levels, Percent of baseline (CYP3A4; [3]): 190%; |
| CN1CC(=O)N2[C@H](c3ccc4c(c3)OCO4)c3[nH]c4ccccc4c3C[C@@H]2C1=O [tadalafil] |  |  |  |  | normal baseline AUC: mean AUC0-∞ (% CV) ([2]; 10 mg tadalafil): about 3647 (34.0%) μg*h/L; normal baseline Cmax: mean Cmax (% CV) ([2]; 10 mg tadalafil): 190 (21.7%) μg/L; normal baseline Cmax: mean Cmax (% CV) ([2]; 20 mg tadalafil): 548 (24.0%) μg/L |
| CO[C@H]1C[C@@H]2CC[C@@H](C)[C@@](O)(O2)C(=O)C(=O)N2CCCC[C@H]2C(=O)O[C@H]([C@H](C)C[C@@H]2CC[C@@H](OCCO)[C@H](OC)C2)CC(=O)[C@H](C)/C=C(\C)[C@@H](O)[C@@H](OC)C(=O)[C@H](C)C[C@H](C)/C=C/C=C/C=C/1C [everolimus] |  |  |  |  | normal baseline AUC: mean AUC0-24±SD at steady state ([2]; 10 mg everolimus): about 536±7.7 ng*h/mL; normal baseline Cmax: mean Cmax (% CV), steady state ([2]; 10 mg everolimus): 59.7±16.9 (21.7%) ng/mL |
| CC#CC(=O)N1CCC[C@H]1c1nc(-c2ccc(C(=O)Nc3ccccn3)cc2)c2c(N)nccn12 [acalabrutinib] | 5.1 fold | 510% | 3.9 fold | 390% | AUC target safe level, Fold change [1]: 2.0 fold; AUC target safe level, Percent of baseline [1]: 200%; Cmax target safe level, Fold change [1]: 2.0 fold; Cmax target safe level, Percent of baseline [1]: 200% |
